Test results published in US20100203614A1, “FATTY ALDEHYDE REDUCTASE” (Utah State University, priority 2009, published 2010).
Where “and” joins values, the source holds several entries; their conditions need not be identical. Equal values may be shown once. Entries after “also recorded” stand apart in the source; their conditions may differ. Where a name gives a salt, the structure may show the parent alone. Read-outs that look alike come from different tables or passages of the source. Values belong to the compound of their own block, whether it stands above or below them.

Tests used:
MBP-FALDR fusion protein = experiment: Inhibition of decanal reduction by MBP-FALDR in the presence of NADPH; format: biochemical, Marinobacter aquaeolei VT8; settings: for Percent Activity: 100 mM MES pH 6.5, 200 μM NADPH, 250 μM decanal, 125 μg MBP-FALDR, activity remaining vs no inhibitor; for effect on decanal reduction in words: tested at 1.0 mM
Method: (§1) For Fatty Aldehyde Continuous Spectrophotometric Assay Development, all assays were performed in a sealed quartz cuvette with a 1 cm path length. The cuvette and solutions were first degassed with argon on a manifold to remove oxygen from the headspace and solutions. Substrates were initially disbursed into a buffer solution containing BSA at a concentration of 0.5 mg/mL by sonication for three ten second intervals using a microtip sonicator (Branson, Danbury, Conn.). The initial assay for pH optimization included a buffer of 100 mM MOPS, 100 mM MES, and 100 mM TAPS. For reduction assays, 75 μL of a 2 mg/mL NADPH stock was added to bring the initial concentration of NADPH in the cuvette to approximately 200 μM, and an approximate absorbance at 340 nm of 1.2 based on the reported extinction coefficient of 6220 M^−1 cm^−1 for NADPH. In all assays, the reaction was run for at least two minutes with the NADPH and substrate present, prior to the addition of any enzyme, to obtain a background oxidation rate of the NADPH.
Finally, the ability of decanol to inhibit reduction of decanal was also tested.
Referring again to Table 2, the inhibition assays were run in 100 mM MES buffer pH 6.5 with 200 μM NADPH, 250 μM decanal and 125 μg of MBP-FALDR fusion protein. All compounds were dissolved in buffer except dipyridyl, which was dissolved in dimethyl sulfoxide (DMSO).

[1] = system: MBP-FALDR enzyme (maltose binding protein-fatty aldehyde reductase fusion protein); experiment: Continuous spectrophotometric assay of fatty aldehyde reductase activity (NADPH oxidation at 340 nm), substrate comparison and kinetics; format: biochemical, Marinobacter aquaeolei VT8; settings: for substrate activity in words: compared with decanal; for substrate activity in words / Relative Activity (Percent of Decanal): substrate 100 μg/mL; for Relative Activity (Percent of Decanal): 160 μg enzyme, decanal = 85 nmols/min/mg = 100; for Km: substrate of MBP-FALDR, NADPH, FIG. 2 substrate is cis-11-hexadecenal
Method: as §1, with “the NADPH. […] A linear fit of the data was then used to establish the rate, and the initial background rate was subtracted, to determine the rate associated with substrate reduction by the MBP-FALDR enzyme.” for “the NADPH.”
Having established that the MBP-FALDR would utilize NADPH as a substrate, it was possible to employ a continuous spectrophotometric assay to monitor substrate reduction rates based on the loss of absorbance at 340 nm when NADPH is oxidized to NADP^+. Using this assay, it was possible to establish the pH dependence of the reduction reaction. The rate of reaction was highest at pH 6.3, with a steep increase in activity going from 8.0 to 6.3. The rate at 6.3 was only slightly greater than at 6.5 ([…]). Several factors had to be considered in establishing the optimal pH of the assay. The first was the background oxidation of the NADPH without any MBP-FALDR enzyme present. […] The assays were run under an argon atmosphere to minimize oxidation of the NADPH by O2. A further consideration was the rapid degradation that occurs at the lowest pH values. […] So, for standard assays used here, a pH of 6.5 was selected, where the activity was minimally affected by slight variations in pH. The following discussion is useful in understanding some features and benefits of the various embodiments of the invention:
Utilizing the continuous assay to monitor MBP-FALDR activity, the dependence of rate on substrate concentration was determined for all of the commercially available substrates described above. Each assay was repeated multiple times to confirm the results from each single determination. The results obtained for cis-11-hexadecenal are shown in FIG. 2 and are representative of the results obtained for repeated determinations and for the other substrates. […] In addition, several factors could limit the observed activity. All of the substrates tested have limited solubility in aqueous solutions, and must first be suspended in solution via sonication. Even under these conditions, it is likely that the substrates exist inside micelles. The sonication process utilized here could result in the partial degradation of the substrate over time. Additionally, the suspension of the substrate in solution is only temporary, and the substrate slowly separates from aqueous solution. Due to these limitations, the measured activity is likely to be an underestimate of the actual activity. In the cell, the enzyme and substrate are likely associated with the hydrophobic membranes. […] It was also observed that the MBP-FALDR enzyme was unstable over time, even when stored at 4° C., losing as much as 50% of the activity over a period of a week. Though the purification is quite rapid, it is uncertain how much activity is lost during preparation. […]

[2] = biological target: Marinobacter aquaeolei VT8 fatty aldehyde reductase (SEQ ID NO: 2) as maltose binding protein-fatty aldehyde reductase fusion protein (MBP-FALDR), SEQ ID NO: 3 (Marinobacter nauticus, UniProt A1U2T0); experiment: Inhibition of decanal reduction by MBP-FALDR; format: biochemical; settings: for effect on activity (in words): 1.0 mM
Method: as §1, with “the NADPH. […] A linear fit of the data was then used to establish the rate, and the initial background rate was subtracted, to determine the rate associated with substrate reduction by the MBP-FALDR enzyme.” for “the NADPH.”
To probe the possible mechanism of the fatty aldehyde reducatase enzyme comprising the amino acid sequence of SEQ ID NO: 2, applicants again used the MBP-FALDR enzyme and some potential chemical inhibitors were tested for effects on the reduction of decanal by the MBP-FALDR enzyme in the presence of NADPH. In all cases, the compound was tested initially at concentrations of 1.0 mM, and if a significant inhibition was found, lower concentrations were also tested (Table 2). […] At higher concentrations, this was difficult to assess fully, as the dithionite interferes with the absorbance at 340 nm where activity is measured. […] This could be an indication of an active site residue or cofactor that is susceptible to reduction. […] This would indicate that if a transition metal is involved in the catalysis, it is not readily accessible to such chelators. Finally, the ability of decanol to inhibit reduction of decanal was also tested.
Certain embodiments of the invention may be characterized, in part, by the inhibition of the reduction of decanal by a fatty aldehyde reductase enzyme comprised by an amino acid sequence at least 90% identical to the amino acid sequence of SEQ ID NO: 2.
Referring again to Table 2, the inhibition assays were run in 100 mM MES buffer pH 6.5 with 200 μM NADPH, 250 μM decanal and 125 μg of MBP-FALDR fusion protein. All compounds were dissolved in buffer except dipyridyl, which was dissolved in dimethyl sulfoxide (DMSO). […] Activity is reported as the activity remaining in the presence of each compound as a percentage of the activity without any inhibitor present. *Not determined. Each compound was tested multiple times to confirm reproducibility. The remaining activity presented here is the result from a single set of data.

MBP-FALDR enzyme = experiment: Initial assessment of activity: overnight reaction with NADPH/NADH or NADP+, GC/GC-MS analysis; format: biochemical, Marinobacter aquaeolei VT8; settings: with NADP+
Method: For initial assessment of the activity of the purified MBP-FALDR enzyme, 50 μg of purified MBP-FALDR protein was added to a reaction mixture containing 100 mM of Tris buffer at pH 7.9, 100 mM NaCl, 2.4 mM of either NADPH or NADH as a reductant, and decanal, oleic acid, and hexadecanol as possible substrates. The assays were run under an argon atmosphere in septa sealed vials overnight at room temperature with constant gentle mixing. The products of the reactions were then extracted from the buffer by adding an equal volume of hexane and organic layer components were analyzed by gas chromatography equipped with a flame ionization detector (Forte HT5 column (SGE Analytical Science, Austin, Tex.), 30 meter by 0.32 mm inner diameter with 0.5 μm film thickness, with argon as a carrier and a temperature ramp from 60° C. to 360° C. increasing at 10° C. per minute). Samples containing new peaks not present in a control sample were also run through a gas chromatograph equipped with a mass spectrometer (Shimadzu GC-2010 and GCMS-QP2010S) to assign the identity of the product.
Preliminary experiments were run with the MBP-FALDR enzyme to probe possible substrates by mixing either NADH or NADPH with an aldehyde (decanal), alcohol (hexadecanol) or fatty acid (oleic acid) and then looking for changes in concentration of one or more of the potential substrates by GC analysis. The assays were allowed to run overnight in a sealed vial under an atmosphere of argon to maintain the reduced forms of the nicotinamide coenzymes. […] This initial result pointed to the likelihood that the MBP-FALDR enzyme is an NADPH-dependent fatty aldehyde reductase, and further experiments were run to characterize this activity. […] The activity of medium chain alcohol dehydrogenases from a broad range of species show rates of oxidation of alcohols that are 10% of the rates of the reduction of the corresponding aldehyde, so it is possible that this rate is too low to detect.

[3] = reduction of decanal with NADPH

Compound: O[C@H](CS)[C@H](O)CS (racemic) [Dithiothreitol]
Percent Activity (MBP-FALDR fusion protein; inhibitor 1.0 mM): 76%

Compound: O=C1O[C@H]([C@@H](O)CO)C(O)=C1O [Ascorbic Acid]
Percent Activity (MBP-FALDR fusion protein; inhibitor 1.0 mM): 76%

Compound: O=Cc1ccccc1 [Benzaldehyde]
substrate activity in words [1]: no apparent activity | Relative Activity (Percent of Decanal) [1]: <1% of Decanal

Compound: c1ccc(-c2ccccn2)nc1 [Dipyridyl]
effect on activity (in words) [2, 3]: only a moderate inhibition of activity | Percent Activity (MBP-FALDR fusion protein; inhibitor 0.25 mM): 59% | Percent Activity (MBP-FALDR fusion protein; inhibitor 1.0 mM): 46% | effect on decanal reduction in words (MBP-FALDR fusion protein): moderate inhibition

Compound: O=S(O)S(=O)O [Dithionite]
Percent Activity (activity remaining in presence of inhibitor) ([2]; 0.25 mM inhibitor, 100 mM MES pH 6.5, 200 μM NADPH, 250 μM decanal, 125 μg MBP-FALDR, % of activity without inhibitor): 8% | inhibition (in words) ([2]; 250 μM, reduction of decanal with NADPH, compared with higher concentration): the inhibition is more pronounced | Percent Activity (activity remaining in presence of inhibitor) ([2]; 1.0 mM inhibitor, 100 mM MES pH 6.5, 200 μM NADPH, 250 μM decanal, 125 μg MBP-FALDR, % of activity without inhibitor): 25% | effect on activity (in words) [2, 3]: significant decrease in activity | Percent Activity (MBP-FALDR fusion protein; inhibitor 0.25 mM): 8% | Percent Activity (MBP-FALDR fusion protein; inhibitor 1.0 mM): 25% | effect on decanal reduction in words (MBP-FALDR fusion protein): significant decrease in activity

Compound: CCCCCCCCCCCCO [Dodecanol]
Percent Activity (MBP-FALDR fusion protein; inhibitor 0.25 mM): 55% | Percent Activity (MBP-FALDR fusion protein; inhibitor 1.0 mM): 54%

Compound: O=C(O)CN(CCN(CC(=O)O)CC(=O)O)CC(=O)O [EDTA (Disodium Salt)]
effect on activity (in words) [2, 3]: little effect on the activity | inhibition at 1000 µM ([2]; pH 6.5, read-out: Percent Activity (activity remaining in presence of inhibitor)): 81%

The next lines start with results.

substrate activity in words [1]: no apparent activity | Relative Activity (Percent of Decanal) [1]: <1% of Decanal
Compound: CCCC=O [Butanal]

substrate activity in words [1]: activity was lower | Relative Activity (Percent of Decanal) [1]: 55% of Decanal | Km ([1]; Michaelis-Menten fit): ~200 µM
Compound: CCCCCCCCCCCC=O [Dodecanal]

substrate activity in words [1]: no apparent activity | Relative Activity (Percent of Decanal) [1]: <1% of Decanal
Compound: CCCCCC=O [Hexanal]

Relative Activity (Percent of Decanal) [1]: 52% of Decanal | Km ([1]; Michaelis-Menten fit): ~750 µM
Compound: CCCCCCCC=O [Octanal]
substrate activity in words [1]: approximately half the activity obtained for decanal

Vmax (maximum velocity) ([1]; Michaelis-Menten fit, substrate cis-11-hexadecenal (FIG. 2)): 63 nmol/min/mg | Relative Activity (Percent of Decanal) [1]: 87% of Decanal | Km ([1]; Michaelis-Menten fit): ~177 µM and 177 µM
Compound: CCCC/C=C\CCCCCCCCCC=O [cis-11-hexadecenal]
substrate activity in words [1]: slightly lower than that obtained for decanal; also recorded: activity comparable to decanal

reverse reaction: aldehyde production by GC (MBP-FALDR enzyme): no detectable levels
Compound: CCCCCCCCCCCCCCCCO [hexadecanol]

inhibition at 1000 µM ([2]; 1.0 mM inhibitor, 100 mM MES pH 6.5, 200 μM NADPH, 250 μM decanal, 125 μg MBP-FALDR, % of activity without inhibitor, read-out: Percent Activity (activity remaining in presence of inhibitor)): 75%
Compound: OCCS [β-Mercaptoethanol]
